Reference: PubChem BioAssay (NCI)
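Step 1: Grow cells in 96-well plates. Step 2: Expose to compound for 48 hours at 5 concentrations. Step 3: Interpolate endpoints linearly; if unreached, use highest concentration. At the GI50, growth is halved. TGI: total growth inhibition.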

What was measured:
Test in all cases: inhibition of tumour cell growth, NCI panel, 48 h
[1] = test system: SK-MEL-28 melanoma
[2] = test system: HOP-62 NSCLC
[3] = test system: SN12C renal
[4] = test system: KM12 colon
[5] = test system: UACC-257 melanoma
[6] = test system: SW-620 colon
[7] = test system: COLO 205 colon
[8] = test system: LOX IMVI melanoma
[9] = test system: 786-0 renal
[10] = test system: MDA-MB-231 breast

Structure (SMILES)	TGI [1] [µM]	TGI [2] [µM]	TGI [3] [µM]	TGI [4] [µM]	TGI [5] [µM]	TGI [6] [µM]	TGI [7] [µM]	TGI [8] [µM]	TGI [9] [µM]	TGI [10] [µM]	GI50 [8] [µM]
COc1ccc2c(c1)CCN1CCCc3ccccc3C21 (stereo unspecified)	> 100	> 100	> 100	> 100	> 100	> 100	> 100	57.9	> 100	> 100	
CCOC(=O)c1[nH]c2cccc3c2c1CC[C@H](NC(=O)C(F)(F)F)C3=O	0.0458	72.5	> 100	> 100	> 100	> 100	> 100	> 100	> 100	> 100	
CN[C@@H](C)[C@@H](O)c1ccccc1	> 100	> 100	> 100	> 100	> 100	> 100	> 100	> 100	> 100	> 10	
COc1ccc(C2SCC(=O)N2NC(=O)C(C)Oc2ccccc2C)cc1 (stereo unspecified)	> 100	> 100	> 100	> 100	> 100	> 100	> 100	> 100	> 100	> 100	
COC1=C2C=[N+](C)C3C(=C2C=CC1OC)Cc1cc2c(cc13)OCO2 (stereo unspecified)	47.4	26.8	18	10.4	26.2	> 100	18.4	39.6	29.6	27.8	
COC(=O)NC(Cc1ccccc1)NC(C)=O (stereo unspecified)	> 100	> 100	> 100	> 100	> 100	> 100	> 100	> 100	> 100	> 100	
CC(=O)Oc1cc(OC(C)=O)c2c(C)cc(=O)oc2c1	> 100	> 100	> 100	> 100	> 100	> 100	> 100	> 100	> 100	> 100	
CC12ON(P(=O)(c3ccccc3)c3ccccc3)C(C)(c3ccccc31)c1ccccc12	> 100	> 100	> 100	> 100	> 100	> 100	> 100	> 100	> 100	> 100	
O=[N+]([O-])c1ccc(O)c(/C=N/c2nc(-c3ccccc3)cs2)c1	> 100	> 90.5	> 100	> 100	> 100	> 100	56.7	38.7	> 100	> 100	
CCCc1nnc2sc(COc3cc(Cl)c(OCc4nn5c(CCC)nnc5s4)cc3Cl)nn12	> 100	> 100	> 100	> 100	> 100	> 100	> 100	> 100	> 100	> 100	
Nc1ccc2ccc(-c3ccc[nH]3)nc2n1	> 100	> 100	> 100	> 100	> 100	> 100	> 100	> 100	> 100	> 100	
CC1=CCC[C@H]2[C@](C)(CC3=CC(=O)C(Sc4ccccc4)=CC3=O)[C@@H](C)CC[C@]12C	35.7	32.6	31.6	> 100	32.5	30.5	29.5	26.4	32.2	51.8	13.6
Cc1cc2oc(C)c(S(=O)(=O)NC(=O)Nc3ccc(Cl)cc3)c(=O)c2c(=O)o1	> 100	> 100	> 100	> 100	> 100	> 100	> 100	> 100	> 100	> 100	
NC(CC(O)(c1ccccc1)c1ccccc1)c1ccccc1S (stereo unspecified)	31.5	30.2	44.1	25.5	43.8	36.4	32	30.5	29.4	33.3	
Cc1c(O)c(OC2OC(CO)C(O)C(O)C2O)cc2c1C=C[C@@H]1[C@@]2(C)C(=O)C[C@]2(C)[C@@H]([C@@](C)(O)C(=O)CCC(C)(C)O)[C@H](O)C[C@@]12C (stereo partly specified)	43.1	> 100	44.1	66.6	47.2	79.9	> 100	59.2	74.3	47.7	
COC(=O)c1cccc(OC)c1C#Cc1c(OC)cccc1OC	> 100	> 100	> 100	> 100	> 100	> 100	> 100	> 100	> 100	> 100	
O=[N+]([O-])c1cccc(Cl)c1Oc1ccc(S(=O)(=O)/N=C(\NO)Nc2ccc(Cl)cc2)cc1	34.7	45.4	25.7	31.2	26	30.3	31	32.7	25.7	47.6	
CC(=O)N(C(C)=O)n1c(Cc2ccc(C)cc2)nn(C(C)=O)c1=O	> 100	> 100	> 100	> 100	> 100	> 100	> 100	> 100	> 100	> 100	
Cc1ccc(S(=O)(=O)N/N=C2/CCC(C(C)(C)C)CC2Br)cc1 (stereo unspecified)	54.5	> 100	32.4	47	> 100	53.1	> 100	30.5	99.4	> 100	
